Measurements: article PMC5084074 (ACS Central Science, 2016)
≈ marks a conversion by molar mass, not a printed value.

What was measured:
[1] = rat models; cited from earlier work
[2] = DOSY NMR of saturated phenytoin with increasing polymer concentration; assay type: physicochemical; details: deuterated PBS, poly(NIPAm70-co-DMA30) concentration increased (up to 1000 μg/mL)
[3] = aqueous settings; cited from earlier work

| Structure (SMILES) | AUC over 24 h [1] [μg/mL-min] | translational diffusion coefficient (D0) of phenytoin [2] | solubility [3] [µg/mL] |
| --- | --- | --- | --- |
| O=C1NC(c2ccccc2)(c2ccccc2)C(=O)N1COP(=O)(O)O [fosphenytoin] | 1860 ± 310 | – | – |
| O=C1NC(=O)C(c2ccccc2)(c2ccccc2)N1 [phenytoin] | – | 3.72 ± 0.19 × 10^–10 m^2/s | ~30 (≈ 119 µM) |
